Laboratory results from patent US11634424B2 (priority 2019, dated 2023).
Values joined by “and” are separate entries in the source; they are usually repeats but may differ in a detail not shown here. Identical values can stand only once. Like-named read-outs stand apart in the source and are kept apart here. One block for each compound: values may come before it.

Key:
Chk1 = Chk1 (Homo sapiens (Human), UniProt O14757); test: biochemical; format: biochemical; details: read-out: Chk1 inhibition IC50
Experimental: The compounds of the present disclosure used in the experiments were self-prepared, and their chemical names and structural formulas were shown in the preparation embodiments of each compound. The determination mixture containing embodiment compounds of the present disclosure and Chk1 and Chk2 kinases were incubated in a microtiter plate, and CHK1 inhibitor activity of compounds were tested by monitoring the phosphorylation of Chk1 and Chk2 kinases on a synthetic peptide substrate with a specific amino acid sequence ([…], SEQ ID NO: 1). The test was carried out on the KinaseProfiler™ protein kinase activity detection platform of Eurofins, and the experimental results were provided by the company. The procedure was as follows: Chk1 and Chk2 kinases were diluted with 20 mM MOPS (morpholinpropane sulfonic acid), 1 mM EDTA (ethylenediaminetetraacetic acid), 0.04% Brij-35, 5% glycerol, 0.1% 2-mercaptoethanol, 1 mg/mL BSA (bovine serum albumin) and added to the reaction system, and the reaction system contained the embodiment compounds, 8 mM MOPS pH 7.0, 0.2 mM EDTA, […] polypeptide substrate ([…], SEQ ID NO: 1), 10 mM magnesium acetate and a certain concentration of [γ-33P]-ATP (the strength was about 500 cpm/pmol). A mixture solution of Mg^2′ and ATP (adenosine triphosphate) was added to initiate the reaction and the reaction solution was incubated at room temperature for 40 min. 0.5% Phosphate buffer was added to terminate the reaction. 10 μL of the reaction solution was filtered four times on a continuous filter P30, washed three times with […], and once with methanol, each wash for 4 min. The value was read with scintillation counting method after drying.

Chk2 = Chk2 (Homo sapiens (Human), UniProt O96017); test: Chk2 kinase activity test, Eurofins KinaseProfiler, [γ-33P]-ATP peptide substrate phosphorylation; format: biochemical
Experimental: The compounds of the present disclosure used in the experiments were self-prepared, and their chemical names and structural formulas were shown in the preparation embodiments of each compound. […] The test was carried out on the KinaseProfiler™ protein kinase activity detection platform of Eurofins, and the experimental results were provided by the company. […] A mixture solution of Mg^2′ and ATP (adenosine triphosphate) was added to initiate the reaction and the reaction solution was incubated at room temperature for 40 min. 0.5% Phosphate buffer was added to terminate the reaction. […] The value was read with scintillation counting method after drying.

[1] = tested on: human ovarian cancer OVCAR-3 subcutaneous xenograft tumor; test: In vivo pharmacodynamics, human ovarian cancer OVCAR-3 subcutaneous xenograft tumor BALB/c nude mouse model; set-up: species or system BALB/c nude mice; details: oral twice a day, Compound 18 75 mg/kg, Compound 19 25 mg/kg; for Tumor volume (D 21): D 21, mean ± SEM, n = 6
Experimental: Experimental purpose: To evaluate the in vivo efficacy of the compounds of the present disclosure in the human ovarian cancer OVCAR-3 subcutaneous xenograft tumor BALB/c nude mouse model.
Experimental animal: Female BALB/c nude mice, 6-8 weeks old, weighing 18-22 grams; supplier: Beijing Vital River Laboratory Animal Technology Co., Ltd. Experimental methods and steps:
Human ovarian cancer OVCAR-3 (ATCC-HTB-161) cells were cultured in vitro in monolayer, and the culture conditions were RPMI1640 culture medium with 20% fetal bovine serum, 0.01 mg/mL bovine insulin, and 1% double antibody, and the cells were incubated at 37° C., 5% CO2 incubator. Routine digestion with trypsin was performed twice a week for passage. When the cell saturation was 80%-90% and the number reached the requirement, the cells were harvested, counted and inoculated.
0.1 mL (10×10^6 cells) of OVCAR-3 cells were subcutaneously inoculated into the right back of each mouse, and the mice were administrated in groups when the average tumor volume reached 122 mm^3.
Compound 18, compound 19 were formulated as 2 mg/mL clear solutions with 10% dimethyl sulfoxide-20% polyethylene glycol 400-5% Tween 80-65% water.
Tumor diameters were measured with vernier calipers twice a week. The calculation formula of tumor volume was. V=0.5a×b^2, where a and b represented the long and short diameters of the tumor, respectively.
The antitumor efficacy of the compounds was evaluated by TGI (%). TGI (%), reflecting tumor growth inhibition rate. TGI (%/c)=[(1-(average tumor volume at the end of administration of a certain treatment group-average tumor volume at the beginning of administration of this treatment group)/(average tumor volume at the end of treatment in the solvent control group-average tumor volume at the beginning of administration of this solvent control group)]×100%. The relative tumor volume (RTV) was calculated according to the results of tumor measurement, and the calculation formula was RTV=Vt/V0, where V0 was measured at the time of group administration (i.e., D0), and Vt was the average tumor volume at the time of one measurement.
Statistical analysis was performed using SPSS software based on RTV data at the end of the test. The Ttest was used for the comparison between two groups, and the one-way ANOVA was used for the comparison between three or more groups. If the variance was homogeneous (no significant difference in F value), Tukey's method was used for analysis; if the variance was not homogeneous (significant difference in F value), Games-Howell method was used for test. p<0.05 was considered that a significant difference was performed.

[2] = Pharmacokinetic evaluation of compounds in mice; format: in vivo; details: mouse, plasma, female C57BL/6 mice; for bioavailability: oral, gavage 10 mg/kg vs intravenous 1 mg/kg, read-out: F (bioavailability); for AUC(0-t): 0 to 24 h; for Cmax: route not given (gavage group 10 mg/kg); for half-life: read-out: Intravenous injection T1/2 (converted)
[3] = po, gavage 10 mg/kg, read-out: Oral AUC0-last
[4] = intravenous injection 1 mg/kg, read-out: Intravenous Injection AUC0-last

Chain of Chk1 (O14757 whole entry): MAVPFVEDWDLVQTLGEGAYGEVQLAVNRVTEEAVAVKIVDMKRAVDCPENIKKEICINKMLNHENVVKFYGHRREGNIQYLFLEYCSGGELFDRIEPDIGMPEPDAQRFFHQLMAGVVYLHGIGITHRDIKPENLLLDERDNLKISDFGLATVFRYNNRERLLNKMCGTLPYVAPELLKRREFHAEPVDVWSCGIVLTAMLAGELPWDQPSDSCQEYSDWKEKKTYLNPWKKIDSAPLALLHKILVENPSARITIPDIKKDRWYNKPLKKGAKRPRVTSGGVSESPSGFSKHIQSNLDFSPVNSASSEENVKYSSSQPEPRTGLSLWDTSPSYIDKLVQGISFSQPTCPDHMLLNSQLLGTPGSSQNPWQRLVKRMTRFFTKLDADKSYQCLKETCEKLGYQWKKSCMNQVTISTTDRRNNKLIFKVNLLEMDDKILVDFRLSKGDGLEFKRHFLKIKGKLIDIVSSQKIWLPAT
Chain of Chk2 (O96017 whole entry): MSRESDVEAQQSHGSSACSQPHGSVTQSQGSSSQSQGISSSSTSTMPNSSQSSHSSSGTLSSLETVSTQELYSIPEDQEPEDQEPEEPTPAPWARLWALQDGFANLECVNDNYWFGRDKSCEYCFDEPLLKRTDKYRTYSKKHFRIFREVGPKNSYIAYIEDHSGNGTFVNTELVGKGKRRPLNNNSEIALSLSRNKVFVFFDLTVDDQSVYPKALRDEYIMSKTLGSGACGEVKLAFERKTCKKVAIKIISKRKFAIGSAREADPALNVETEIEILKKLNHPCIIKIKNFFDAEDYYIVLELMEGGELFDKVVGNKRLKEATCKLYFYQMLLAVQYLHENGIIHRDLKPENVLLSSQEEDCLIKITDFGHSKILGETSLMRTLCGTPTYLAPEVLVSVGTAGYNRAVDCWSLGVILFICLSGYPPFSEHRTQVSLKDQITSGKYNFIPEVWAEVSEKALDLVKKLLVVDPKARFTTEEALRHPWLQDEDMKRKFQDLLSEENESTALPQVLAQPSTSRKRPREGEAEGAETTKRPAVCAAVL

IC50 (Chk1): < 1 nM
SMILES: COc1nc(C)ccc1-c1cc(Nc2cnc3ccn(C4CCNCC4)c3n2)n[nH]1 [Compound 1]

IC50 (Chk1): 2 nM
SMILES: COc1nc(C)ccc1-c1cc(Nc2cnc3c(F)cn(C4CCNCC4)c3n2)n[nH]1 [Compound 2]

SMILES: COc1nc(C)ccc1-c1cc(Nc2cnc3ccn(CC4CNC4)c3n2)n[nH]1 [Compound 4]
IC50 (Chk1): 3 nM
IC50 (Chk2; read-out: Chk2 inhibition IC50): 333 nM

SMILES: COc1nc(C)ccc1-c1cc(Nc2cnc3ccn(C[C@H]4CCNC4)c3n2)n[nH]1 [Compound 5]
IC50 (Chk1): 3 nM
IC50 (Chk2; read-out: Chk2 inhibition IC50): 375 nM

IC50 (Chk1): < 1 nM
IC50 (Chk2): 64 nM
SMILES: [2H]c1cn(C2CCNCC2)c2nc(Nc3cc(-c4ccc(C)nc4OC)[nH]n3)cnc12 [Compound 6]

SMILES: COc1ccc(F)cc1-c1cc(Nc2cnc3ccn(C4CCNCC4)c3n2)n[nH]1 [Compound 8]
IC50 (Chk1): 1 nM
IC50 (Chk2; read-out: Chk2 inhibition IC50): 188 nM

SMILES: COc1nc(C(F)(F)F)ccc1-c1cc(Nc2cnc3ccn(C4CCNCC4)c3n2)n[nH]1 [Compound 9]
IC50 (Chk1): 2 nM
IC50 (Chk2; read-out: Chk2 inhibition IC50): 1010 nM

SMILES: COc1ccccc1-c1cc(Nc2cnc3ccn(C4CCNCC4)c3n2)n[nH]1 [Compound 10]
IC50 (Chk1): 2 nM
IC50 (Chk2; read-out: Chk2 inhibition IC50): 62 nM

SMILES: Fc1cccc(OC(F)(F)F)c1-c1cc(Nc2cnc3ccn(C4CCNCC4)c3n2)n[nH]1 [Compound 11]
IC50 (Chk1): 3 nM
IC50 (Chk2; read-out: Chk2 inhibition IC50): 99 nM

SMILES: COc1cc(F)ccc1-c1cc(Nc2cnc3ccn(C4CCNCC4)c3n2)n[nH]1 [Compound 12]
IC50 (Chk1): 1 nM
IC50 (Chk2; read-out: Chk2 inhibition IC50): 32 nM

SMILES: COc1cc(C)ccc1-c1cc(Nc2cnc3ccn(C4CCNCC4)c3n2)n[nH]1 [Compound 13]
IC50 (Chk1): 2 nM
IC50 (Chk2; read-out: Chk2 inhibition IC50): 84 nM

SMILES: COc1cc(Cl)ccc1-c1cc(Nc2cnc3ccn(C4CCNCC4)c3n2)n[nH]1 [Compound 14]
IC50 (Chk1): 1 nM
IC50 (Chk2; read-out: Chk2 inhibition IC50): 73 nM

SMILES: COc1nc(C)ccc1-c1cc(Nc2cnc3ccn(C4CCN(C)CC4)c3n2)n[nH]1 [Compound 18]
Tumor volume (D 21) [1]: 180 ± 16 mm^3
Tumor volume (D 21) ([1]; listed as compound 18): 180 mm^3
RTV (D 21) [1]: 1.49
TGI (%) (D 21) [1]: 92.34%
TGI (%) (D 21) ([1]; listed as compound 18): 92.3%
bioavailability [2]: 33.2%
AUC(0-t) [2, 3]: 3.63 µM·h
Cmax ([2]; po): 1220 nM
Vd ([2]; intravenous injection 1 mg/kg): 1.9 L/kg
clearance ([2]; intravenous injection 1 mg/kg): 35.3 mL/min/kg
AUC(0-t) [2, 4]: 1.14 µM·h
half-life ([2]; intravenous injection 1 mg/kg): 0.9 h

SMILES: COc1nc(C)ccc1-c1cc(Nc2cnc3c(F)cn(C4CCN(C)CC4)c3n2)n[nH]1 [Compound 19]
Tumor volume (D 21) [1]: 131 mm^3 and 131 ± 12 mm^3
RTV (D 21) [1]: 1.14
TGI (%) (D 21) [1]: 98.8% and 98.76%
bioavailability [2]: 39.1%
AUC(0-t) [2, 3]: 3.91 µM·h
Cmax ([2]; po): 1220 nM
Vd ([2]; intravenous injection 1 mg/kg): 2.4 L/kg
clearance ([2]; intravenous injection 1 mg/kg): 33.1 mL/min/kg
AUC(0-t) [2, 4]: 1.15 µM·h
half-life ([2]; intravenous injection 1 mg/kg): 1.1 h

SMILES: [2H]C([2H])([2H])Oc1nc(C)ccc1-c1cc(Nc2cnc3c(F)cn(C4CCN(C)CC4)c3n2)n[nH]1 [Compound 20]
IC50 (Chk1): 2 nM
IC50 (Chk2): 282 nM
bioavailability [2]: 41.9%
AUC(0-t) [2, 3]: 5.13 µM·h
Cmax ([2]; po): 1260 nM
Vd ([2]; intravenous injection 1 mg/kg): 2.7 L/kg
clearance ([2]; intravenous injection 1 mg/kg): 30.9 mL/min/kg
AUC(0-t) [2, 4]: 1.21 µM·h
half-life ([2]; intravenous injection 1 mg/kg): 1.4 h

SMILES: [2H]C([2H])([2H])N1CCC(n2ccc3ncc(Nc4cc(-c5ccc(C)nc5OC)[nH]n4)nc32)CC1 [Compound 21]
IC50 (Chk1): 1 nM
IC50 (Chk2): 362 nM

IC50 (Chk1): 1 nM
IC50 (Chk2): 386 nM
SMILES: [2H]C([2H])([2H])Oc1nc(C)ccc1-c1cc(Nc2cnc3ccn(C4CCN(C([2H])([2H])[2H])CC4)c3n2)n[nH]1 [Compound 22]
